The values that follow come from patent publication US9371319B2, “Pyrrolopyridineamino derivatives as MPS1 inhibitors” (priority 2011, dated 2016).

This assay deals with T1, full length MPS1 (Homo sapiens, UniProt P33981).
T1 sequence (P33981 1-857): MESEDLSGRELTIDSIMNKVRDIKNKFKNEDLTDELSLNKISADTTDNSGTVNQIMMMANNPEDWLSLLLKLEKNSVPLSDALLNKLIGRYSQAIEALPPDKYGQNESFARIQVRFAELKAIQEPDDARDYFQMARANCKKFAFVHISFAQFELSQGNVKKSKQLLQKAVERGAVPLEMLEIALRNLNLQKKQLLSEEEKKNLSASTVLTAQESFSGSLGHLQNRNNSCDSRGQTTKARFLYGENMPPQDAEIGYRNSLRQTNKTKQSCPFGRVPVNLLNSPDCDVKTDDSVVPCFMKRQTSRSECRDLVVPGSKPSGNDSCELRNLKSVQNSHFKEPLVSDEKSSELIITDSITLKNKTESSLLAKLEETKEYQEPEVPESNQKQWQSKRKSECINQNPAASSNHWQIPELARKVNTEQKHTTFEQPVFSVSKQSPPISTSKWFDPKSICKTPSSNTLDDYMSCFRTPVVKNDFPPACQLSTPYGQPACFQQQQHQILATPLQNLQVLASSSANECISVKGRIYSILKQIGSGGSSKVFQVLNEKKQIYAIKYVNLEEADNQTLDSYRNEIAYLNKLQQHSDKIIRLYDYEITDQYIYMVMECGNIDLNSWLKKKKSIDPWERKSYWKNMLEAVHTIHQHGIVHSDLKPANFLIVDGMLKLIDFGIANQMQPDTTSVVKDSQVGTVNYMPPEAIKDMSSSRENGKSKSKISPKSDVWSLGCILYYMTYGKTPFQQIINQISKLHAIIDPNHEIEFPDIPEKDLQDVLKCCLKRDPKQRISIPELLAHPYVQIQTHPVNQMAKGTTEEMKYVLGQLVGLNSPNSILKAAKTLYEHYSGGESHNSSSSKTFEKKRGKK
The assay is described as follows: biochemical. The procedure:
Measurement of Inhibition of MPS1 Kinase
(5 μM), ATP (10 μM), either DMSO (1% v/v) or the test compound (in the range 0.25 nM-100 μM in 1% DMSO) and assay buffer (50 mM HEPES (pH 7.0), 0.02% NaN3, 0.01% BSA, 0.1 mM Orthovandate, […], 1 μM DTT, Roche protease inhibitor). The reaction was carried out for 60 min at room temperature and stopped by the addition of buffer (10 μl) containing 20 mM EDTA, 0.05% (v/v) Brij-35, in 0.1M HEPES-buffered saline (Free acid, Sigma, UK). The plate was read on a Caliper EZ reader II (Caliper Life Sciences).
The % inhibition of the compounds is calculated relative to the means of selected control wells. […] The % inhibitions at each concentration are then fitted to a 4 parameter logistic fit: y=(a+((b−a)/(1+((c/x^d)))) where a=asym min, b=asym max, c=IC50 and d=hill coefficient
Usually IC50 stands for the concentration needed to halve the response being measured. A low value points to higher potency. Turning to `Cc1cc(Cn2c(-c3cnn(C)c3)cc3cnc(Nc4ccc(C(=O)N(C)C)cc4Cl)cc32)no1` [Example 90], the midpoint of inhibition, the IC50, lay at 343 nM.
The molecule `COc1cc(-c2cnn(C)c2)ccc1Nc1cc2c(cn1)cc(-c1cnn(C)c1)n2C(=O)OC(C)C` [Example 102] registered an IC50 of 7 nM.
The same measure for `CN(C)C(=O)c1ccc(Nc2cc3[nH]c(-c4cnn(C)c4)cc3cn2)c(OC(F)(F)F)c1` [Example 113, N,N-Dimethyl-4-(2-(1-methyl-1H-pyrazol-4-yl)-1H-pyrrolo[3,2-c]pyridin-6-ylamino)-3-(trifluoromethoxy)benzamide]: 68 nM.
In the case of `Cn1cc(-c2cc3cnc(Nc4ccc(C(=O)N5CCCC5)cc4Cl)cc3[nH]2)cn1` [Example 145, (3-Chloro-4-(2-(1-methyl-1H-pyrazol-4-yl)-1H-pyrrolo[3,2-c]pyridin-6-ylamino)phenyl)(pyrrolidin-1-yl)methanone], the half-inhibitory concentration (IC50) amounted to 12 nM.
The same measure for `Fc1ccc(Nc2cc3[nH]c(-c4cn[nH]c4)cc3cn2)nc1` [Example 189, N-(5-fluoropyridin-2-yl)-2-(1H-pyrazol-4-yl)-1H-pyrrolo[3,2-c]pyridin-6-amine]: 159 nM.
The same measure for `COc1cc(CN(C)C(=O)OC(C)(C)C)ccc1Nc1cc2c(cn1)cc(-c1cnn(C)c1)n2C(=O)OC(C)(C)C` [Example 34]: 111 nM; for `Cc1ncc(-c2ccc(Nc3cc4c(cn3)cc(-c3cnn(C)c3)n4C(=O)OC3CCC3)c(Cl)c2)n1C` [Example 85]: 4 nM; for `COc1ncccc1Nc1cc2[nH]c(-c3cnn(C)c3)cc2cn1` [Example 112, N-(2-Methoxypyridin-3-yl)-2-(1-methyl-1H-pyrazol-4-yl)-1H-pyrrolo[3,2-c]pyridin-6-amine]: 21 nM.
The same measure for `Cc1ccc(-c2ccc(Nc3cc4c(cn3)cc(-c3cnn(C)c3)n4C(=O)OC(C)(C)C)c(Cl)c2)cn1` [Example 49]: 9 nM; for `COCCn1c(-c2cnn(C)c2)cc2cnc(Nc3ccc(-c4cnc(C)n4C)cc3Cl)cc21` [Example 104]: 83 nM; for `Cc1nc(C)c(-c2ccc(Nc3cc4c(cn3)cc(-c3cnn(C)c3)n4C(=O)OC(C)(C)C)c(Cl)c2)s1` [Example 45]: 52 nM.
`CN(C)C(=O)c1ccc(Nc2cc3c(cn2)cc(-c2cnn(C)c2)n3-c2ncccn2)c(Cl)c1` [Example 93] came in with an IC50 of 94 nM.
Consider `CN(C)C(=O)c1ccc(Nc2cc3[nH]c(-c4cnn(C)c4)c(Cl)c3cn2)c(Cl)c1` [Example 190, 3-Chloro-4-(3-chloro-2-(1-methyl-1H-pyrazol-4-yl)-1H-pyrrolo[3,2-c]pyridin-6-ylamino)-N,N-dimethylbenzamide], for which the half-maximal inhibitory concentration (IC50) came to 8.4 nM.
The same measure for `COc1cc(C(=O)N2CC(OC)C2)ccc1Nc1cc2c(cn1)cc(-c1cnn(C)c1)n2C(=O)OC(C)(C)C` [Example 12]: 7 nM; for `CN1CCN(C(=O)c2ccc(Nc3cc4[nH]c(-c5cnn(C)c5)cc4cn3)c(Cl)c2)CC1` [Example 146, (3-Chloro-4-(2-(1-methyl-1H-pyrazol-4-yl)-1H-pyrrolo[3,2-c]pyridin-6-ylamino)phenyl)(4-methylpiperazin-1-yl) methanone]: 20 nM; for `COc1cc(-c2ccc(Nc3cc4c(cn3)cc(-c3cnn(C)c3)n4C(=O)OC(C)(C)C)c(Cl)c2)ccn1` [Example 46]: 75 nM.
In turn, `Cn1cc(-c2ccc(Cl)c(Nc3cc4[nH]c(-c5cnn(C)c5)cc4cn3)c2)cn1` [Example 184, N-(2-Chloro-5-(1-methyl-1H-pyrazol-4-yl)phenyl)-2-(1-methyl-1H-pyrazol-4-yl)-1H-pyrrolo[3,2-c]pyridin-6-amine] showed a concentration for half-maximal inhibition (IC50) of 548 nM.
The same measure for `c1cc(Nc2cc3[nH]c(-c4cn[nH]c4)cc3cn2)ccc1CN1CCOCC1` [Example 171, N-(4-(Morpholinomethyl)phenyl)-2-(1H-pyrazol-4-yl)-1H-pyrrolo[3,2-c]pyridin-6-amine]: 9 nM; for `Cn1cc(-c2cc3cnc(Nc4ccc(-c5ccnn5C)cc4Cl)cc3n2C(=O)OC(C)(C)C)cn1` [Example 44]: 19 nM.
The same measure for `Cn1cc(-c2cc3cnc(Nc4ccc(-c5nncn5C)cc4Cl)cc3n2C(=O)OC(C)(C)C)cn1` [Example 18]: 1 nM; for `COCCNC(=O)c1ccc(Nc2cc3[nH]c(-c4cnn(C)c4)cc3cn2)c(OC)c1` [Example 119, 3-Methoxy-N-(2-methoxyethyl)-4-(2-(1-methyl-1H-pyrazol-4-yl)-1H-pyrrolo[3,2-c]pyridin-6-ylamino)benzamide]: 19 nM; for `COC1CN(C(=O)c2ccc(Nc3cc4[nH]c(-c5cnn(C)c5)c(Cl)c4cn3)c(Cl)c2)C1` [Example 195, (3-chloro-4-(3-chloro-2-(1-methyl-1H-pyrazol-4-yl)-1H-pyrrolo[3,2-c]pyridin-6-ylamino)phenyl)(3-methoxyazetidin-1-yl)methanone]: 21 nM.
The same measure for `Cc1ncc(-c2ccc(Nc3cc4[nH]c(-c5cnn(C)c5)cc4cn3)c(Cl)c2)n1C` [Example 152, N-(2-Chloro-4-(1,2-dimethyl-1H-imidazol-5-yl)phenyl)-2-(1-methyl-1H-pyrazol-4-yl)-1H-pyrrolo[3,2-c]pyridin-6-amine]: 5 nM; for `CS(=O)(=O)c1ccc(Nc2cc3[nH]c(-c4cn[nH]c4)cc3cn2)c(Cl)c1` [Example 154, N-(2-chloro-4-(methylsulfonyl)phenyl)-2-(1H-pyrazol-4-yl)-1H-pyrrolo[3,2-c]pyridin-6-amine]: 2 nM; for `CNCc1ccc(Nc2cc3[nH]c(-c4cnn(C)c4)cc3cn2)c(OC)c1` [Example 138, N-(2-methoxy-4-((methylamino)methyl)phenyl)-2-(1-methyl-1H-pyrazol-4-yl)-1H-pyrrolo[3,2-c]pyridin-6-amine]: 31 nM.
In turn, `Cn1cc(-c2cc3cnc(Nc4ccc(F)cc4Cl)cc3[nH]2)cn1` [Example 130, N-(2-Chloro-4-fluorophenyl)-2-(1-methyl-1H-pyrazol-4-yl)-1H-pyrrolo[3,2-c]pyridin-6-amine] returned a half-inhibitory concentration (IC50) of 510 nM.
The same measure for `Cc1ncc(-c2ccc(Nc3cc4c(cn3)cc(-c3cnco3)n4C(=O)OC(C)C)c(Cl)c2)n1C` [Example 106]: 2 nM; for `CN(C)C(=O)c1ccc(Nc2cc3c(cn2)c(Cl)c(-c2cnn(C)c2)n3CC2CC2)c(Cl)c1` [Example 192, 3-Chloro-4-(3-chloro-1-(cyclopropylmethyl)-2-(1-methyl-1H-pyrazol-4-yl)-1H-pyrrolo[3,2-c]pyridin-6-ylamino)-N,N-dimethylbenzamide]: 53 nM; for `Cn1cc(-c2[nH]c3cc(Nc4ccc(C(=O)N5CCS(=O)(=O)CC5)cc4Cl)ncc3c2Cl)cn1` [Example 196, (3-Chloro-4-(3-chloro-2-(1-methyl-1H-pyrazol-4-yl)-1H-pyrrolo[3,2-c]pyridin-6-ylamino)phenyl)(S,S-dioxo-thiomorpholino)methanone]: 9 nM.
The same measure for `CCOC(=O)n1c(-c2cnn(C)c2)cc2cnc(Nc3ccc(-c4cnc(C)n4C)cc3Cl)cc21` [Example 87]: 2 nM; for `COc1cc(C(=O)N2CCS(=O)(=O)CC2)ccc1Nc1cc2[nH]c(-c3cnn(C)c3)cc2cn1` [Example 115, (3-Methoxy-4-(2-(1-methyl-1H-pyrazol-4-yl)-1H-pyrrolo[3,2-c]pyridin-6-ylamino)phenyl)(thiomorpholino)methanone-S,S-dioxide]: 7 nM.
